{
  "source": "patent US11414424B2",
  "about": "“Cardiac sarcomere inhibitors” (Cytokinetics, Inc., priority 2018, dated 2022)",
  "data": [
    {"system": "bovine cardiac myofibrils", "assay": "Myofibril assay: PK/LDH-coupled steady-state ATPase activity of skinned bovine cardiac myofibrils", "assay_type": "biochemical", "conditions": "Ca2+ activating to 75% of maximal rate", "procedure": "(§1) To evaluate the effect of compounds on the ATPase activity of full-length cardiac myosin in the context of the native sarcomere, skinned myofibril assays were performed. Bovine cardiac myofibrils were obtained by homogenizing bovine cardiac left ventricular tissue in the presence of a detergent such as triton X-100. Such treatment removes membranes and a majority of the soluble cytoplasmic proteins but leaves intact the cardiac sarcomeric acto-myosin apparatus. Myofibril preparations retain the ability to hydrolyze ATP in a Ca^2+ regulated manner. ATPase activities of such myofibril preparations in the presence and absence of compounds were assayed at Ca^2+ concentrations activating to a defined fraction of the maximal rate (i.e., […], 75%). Small molecule agents were assessed for their ability to inhibit the steady-state ATPase activity of bovine cardiac myofibrils using pyruvate kinase and lactate dehydrogenase (PK/LDH)-coupled enzyme system. This assay regenerates myosin-produced ADP into ATP by oxidizing NADH, producing an absorbance change at 340 nm. Prior to testing small molecule agents, the bovine cardiac myofibrils were assessed for their calcium responsiveness and the calcium concentration that achieves either a 50% (pCa50) or 75% (pCa75) activation of the myofibril system was chosen as the final condition for assessing the inhibitory activity of the small molecule agents. All enzymatic activity was measured in a buffered solution containing 12 mM PIPES (piperazine-N,N′-bis(2-ethanesulfonic acid), 2 mM magnesium chloride at pH 6.8 (PM 12 buffer). Final assay conditions were 1 mg/mL of bovine cardiac myofibrils, 4 U/mL pyruvate kinase, 6 U/mL lactate dehydrogenase, 50 μM ATP, 0.1 mg/mL BSA (bovine serum albumin), 10 ppm antifoam, 1 mM DTT, 0.5 mM NADH, 1.5 mM PEP, 0.6 mM EGTA, and an amount of CaCl2 sufficient to achieve either 50% or 75% activation of the myofibril ATPase activity. Results for compounds tested are provided in Table A. Compounds tested were prepared in accordance with the synthetic procedures described herein.", "units": {"CDMF75 IC15": "µM"}, "values": [
      {"smiles": "CC(=O)N1CC2(C1)C(=O)N([C@H]1CC[C@H](C#N)CC1)CC(=O)N2Cc1ccc(C(F)(F)F)cc1", "note": "[Compound 325, (1r,4r)-4-(2-acetyl-6,9-dioxo-5-(4-(trifluoromethyl)benzyl)-2,5,8-triazaspiro[3.5]nonan-8-yl)cyclohexane-l-carbonitrile]", "CDMF75 IC15": 22.8},
      {"smiles": "COC(=O)N1CC[C@]2(C1)C(=O)N(c1ccc(C#N)cc1F)CC(=O)N2Cc1ccc(C(F)(F)F)cc1", "note": "[Compound 216, methyl (S)-9-(4-cyano-2-fluorophenyl)-7,10-dioxo-6-(4-(trifluoromethyl)benzyl)-2,6,9-triazaspiro[4.5]decane-2-carboxylate]", "CDMF75 IC15": 0.3},
      {"smiles": "CC(C)N1CC(=O)N(Cc2ccc(Cl)cc2)C2(CCN(c3cccnn3)C2)C1=O", "note": "(centres unmarked) [Compound 79, 6-(4-chlorobenzyl)-9-isopropyl-2-(pyridazin-3-yl)-2,6,9-triazaspiro[4.5]-decane-7,10-dione]", "CDMF75 IC15": 3.8},
      {"smiles": "C[C@@H](c1ccc(Cl)cc1)N1C(=O)CN(c2ncc(Cl)cc2F)C(=O)C12CN(CC(F)F)C2", "note": "[Compound 566, (S)-8-(5-chloro-3-fluoro-pyridin-2-yl)-5-(1-(4-chlorophenyl)ethyl)-2-(2,2-difluoroethyl)-2,5,8-triazaspiro[3.5]nonane-6,9-dione]", "CDMF75 IC15": 4.0},
      {"smiles": "CC(C)N1CC(=O)N(Cc2ccc(Cl)cc2)C2(CN(c3ccccn3)C2)C1=O", "note": "[Compound 6, 5-(4-chlorobenzyl)-8-isopropyl-2-(pyridin-2-yl)-2,5,8-triazaspiro[3.5]-nonane-6,9-dione]", "CDMF75 IC15": 0.9},
      {"smiles": "C[C@H](c1ccc(Cl)cc1)N1C(=O)CN(c2ncc(Cl)cc2F)C(=O)C12CC2", "note": "[Compound 616, (R)-7-(5-chloro-3-fluoro-pyridin-2-yl)-4-(1-(4-chlorophenyl)ethyl)-4,7-diazaspiro[2.5]octane-5,8-dione]", "CDMF75 IC15": 11.85},
      {"smiles": "COc1cnc(N2CC(=O)N(Cc3ccc(F)c(Cl)c3)C(C3COC3)C2=O)c(F)c1", "note": "(centres unmarked) [Compound 775, 4-(3-chloro-4-fluoro-benzyl)-1-(3-fluoro-5-methoxypyridin-2-yl)-3-(oxetan-3-yl)piperazine-2,5-dione]", "CDMF75 IC15": 8.0},
      {"smiles": "NC(=O)C12CC([C@H]3C(=O)N(c4ncc(Cl)cc4F)CC(=O)N3Cc3ccc(Cl)cc3)(C1)C2", "note": "[Compound 836, (S)-3-(4-(5-chloro-3-fluoro-pyridin-2-yl)-1-(4-chloro-benzyl)-3,6-dioxo-piperazin-2-yl)bicyclo-[1.1.1]pentane-1-carboxamide]", "CDMF75 IC15": 1.42},
      {"smiles": "CC(C)N1CC(=O)N(Cc2cccc(C(F)(F)F)c2)C(c2ccc(Cl)cc2)C1=O", "note": "(centres unmarked) [Compound 308, 3-(4-chlorophenyl)-1-isopropyl-4-(3-(trifluoro-methyl)benzyl)piperazine-2,5-dione]", "CDMF75 IC15": 22.7},
      {"smiles": "COC(=O)N1CC2(C1)C(=O)N(c1ncc(Cl)cc1F)CC(=O)N2[C@@H](C)c1ccc(C(F)(F)F)cc1", "note": "[Compound 615, methyl (S)-8-(5-chloro-3-fluoropyridin-2-yl)-6,9-dioxo-5-(1-(4-(trifluoro-methyl)phenyl)ethyl)-2,5,8-triazaspiro[3.5]-nonane-2-carboxylate]", "CDMF75 IC15": 1.3},
      {"smiles": "Cc1ccc(CN2C(=O)CN(c3ncc(Cl)cc3F)C(=O)C23CC2(COC2)C3)cc1", "note": "[Compound 816, 10-(5-chloro-3-fluoro-pyridin-2-yl)-7-(4-methyl-benzyl)-2-oxa-7,10-diazadispiro[3.1.56.14]-dodecane-8,11-dione]", "CDMF75 IC15": 0.9},
      {"smiles": "O=C1CN(c2ncc(Cl)cc2F)C(=O)C2(CC(O)C2)N1Cc1ccc(F)cc1", "note": "(centres unmarked) [Compound 764, 8-(5-chloro-3-fluoropyridin-2-yl)-5-(4-fluorobenzyl)-2-hydroxy-5,8-diazaspiro-[3.5]nonane-6,9-dione]", "CDMF75 IC15": 1.6},
      {"smiles": "O=C1CN(c2ncc(Cl)cc2F)C(=O)C2(CCOC2)N1Cc1ccc(C(F)(F)F)cc1", "note": "(centres unmarked) [Compound 553, 9-(5-chloro-3-fluoropyridin-2-yl)-6-(4-(trifluoromethyl)-benzyl)-2-oxa-6,9-diazaspiro[4.5]decane-7,10-dione]", "CDMF75 IC15": 1.4},
      {"smiles": "CC(C)N1CC(=O)N(Cc2ccc(Cl)cc2)C2(CC(=O)N(c3ccccn3)C2)C1=O", "note": "(centres unmarked) [Compound 332, 6-(4-chlorobenzyl)-9-isopropyl-2-(pyridin-2-yl)-2,6,9-triazaspiro[4.5]decane-3,7,10-trione]", "CDMF75 IC15": 16.6},
      {"smiles": "CC(C)N1CC(=O)N(Cc2ccc(Cl)cc2)C2(CN(c3ccncc3)C2)C1=O", "note": "[Compound 8, 5-(4-chlorobenzyl)-8-isopropyl-2-(pyridin-4-yl)-2,5,8-triazaspiro[3.5]-nonane-6,9-dione]", "CDMF75 IC15": 3.3},
      {"smiles": "CNC(=O)N1CC2(C1)C(=O)N(c1ccc(C(=O)c3ccccc3)cc1)CC(=O)N2Cc1ccc(C(F)(F)F)cc1", "note": "[Compound 172, 8-(4-benzoylphenyl)-N-methyl-6,9-dioxo-5-(4-(trifluoromethyl)benzyl)-2,5,8-triazaspiro[3.5]-nonane-2-carboxamide]", "CDMF75 IC15": 18.5},
      {"smiles": "Cc1ccc(CN2C(=O)CN(c3ncc(Cl)cc3F)C(=O)C2C2COC2)cc1", "note": "(centres unmarked) [Compound 666, 1-(5-chloro-3-fluoropyridin-2-yl)-4-(4-methylbenzyl)-3-(oxetan-3-yl)piperazine-2,5-dione]", "CDMF75 IC15": 2.3},
      {"smiles": "O=C1C(C2COC2)N(Cc2ccc(F)cc2)C(=O)CN1c1ncc(Br)cc1F", "note": "(centres unmarked) [Compound 707, 1-(5-bromo-3-fluoropyridin-2-yl)-4-(4-fluorobenzyl)-3-(oxetan-3-yl)piperazine-2,5-dione]", "CDMF75 IC15": 2.9},
      {"smiles": "Cc1ccc(CN2C(=O)CN(c3ncc(Cl)cc3C)C(=O)C2C2COC2)cc1F", "note": "(centres unmarked) [Compound 724, 1-(5-chloro-3-methyl-pyridin-2-yl)-4-(3-fluoro-4-methylbenzyl)-3-(oxetan-3-yl)piperazine-2,5-dione]", "CDMF75 IC15": 13.8},
      {"smiles": "CC(=O)N1CC2(C1)CC1(C2)C(=O)N(c2ncc(Cl)cc2F)CC(=O)N1Cc1ccc(C(F)(F)F)cc1", "note": "[Compound 825, 2-acetyl-10-(5-chloro-3-fluoropyridin-2-yl)-7-(4-(trifluoromethyl)benzyl)-2,7,10-triazadispiro-[3.1.56.14]dodecane-8,11-dione]", "CDMF75 IC15": 0.7},
      {"smiles": "CNC(=O)c1cc(N2CC3(C2)C(=O)N(c2ccc(C#N)cc2F)CC(=O)N3Cc2ccc(C(F)(F)F)cc2)ccc1NC", "note": "[Compound 545, 5-(8-(4-cyano-2-fluorophenyl)-6,9-dioxo-5-(4-(trifluoromethyl)benzyl)-2,5,8-triazaspiro[3.5]nonan-2-yl)-N-methyl-2-(methylamino)benzamide]", "CDMF75 IC15": 0.2},
      {"smiles": "O=C1C(C2CCOCC2)N(Cc2ccc(C(F)(F)F)cc2)C(=O)CN1c1ncc(Cl)cc1F", "note": "(centres unmarked) [Compound 688, 1-(5-chloro-3-fluoropyridin-2-yl)-3-(tetrahydro-2H-pyran-4-yl)-4-(4-(trifluoro-methyl)benzyl)piperazine-2,5-dione]", "CDMF75 IC15": 3.7},
      {"smiles": "CC(C)N1CC(=O)N([C@@H](C)c2ccc(C(F)(F)F)cc2)C2(CN(c3ccccc3)C2)C1=N", "note": "[Compound 328, (S)-9-imino-8-isopropyl-2-phenyl-5-(1-(4-(trifluoromethyl)phenyl)ethyl)-2,5,8-triazaspiro[3.5]nonan-6-one]", "CDMF75 IC15": 19.3},
      {"smiles": "CC1(C2C(=O)N(c3ncc(Cl)cc3F)CC(=O)N2Cc2ccc(Cl)cc2)COC1", "note": "(centres unmarked) [Compound 624, 1-(5-chloro-3-fluoropyridin-2-yl)-4-(4-chlorobenzyl)-3-(3-methyloxetan-3-yl)-piperazine-2,5-dione]", "CDMF75 IC15": 2.0},
      {"smiles": "CC1(C)C(=O)N(c2ccc(Cl)cc2F)CC(=O)N1Cc1ccc(C(F)(F)F)cc1", "note": "[Compound 273, 1-(4-chloro-2-fluorophenyl)-3,3-dimethyl-4-(4-(trifluoromethyl)benzyl)-piperazine-2,5-dione]", "CDMF75 IC15": 1.8},
      {"smiles": "O=C1C(CO)N(Cc2ccc(C(F)(F)F)cc2)C(=O)CN1c1ncc(Cl)cc1F", "note": "(single isomer, unassigned) [Compound 857B, 1-(5-chloro-3-fluoropyridin-2-yl)-3-(hydroxymethyl)-4-(4-(trifluoromethyl)benzyl)piperazine-2,5-dione]", "CDMF75 IC15": ">39"},
      {"smiles": "CC(C)N1CC(=O)N(Cc2ccc(Cl)cc2)C2(CN(c3nc(C(F)(F)F)cs3)C2)C1=O", "note": "[Compound 39, 5-(4-chlorobenzyl)-8-isopropyl-2-(4-(trifluoromethyl)thiazol-2-yl)-2,5,8-triazaspiro-[3.5]nonane-6,9-dione]", "CDMF75 IC15": 3.9},
      {"smiles": "N#Cc1ccc(N2CC(=O)N(Cc3ccc(Cl)cc3)[C@]3(C[C@H](C(=O)N4CCC(O)CC4)C3)C2=O)c(F)c1", "note": "(single isomer, unassigned) [Compound 492B]", "CDMF75 IC15": 0.4}
    ]},
    {"system": "bovine cardiac myofibrils", "assay": "Myofibril assay: PK/LDH-coupled steady-state ATPase activity of skinned bovine cardiac myofibrils", "assay_type": "biochemical", "conditions": "Ca2+ activating to 75% of maximal rate, listed as 867B", "procedure": "as §1", "units": {"CDMF75 IC15": "µM"}, "values": [
      {"smiles": "O=C1CN(c2ccc(Cl)cc2F)C(=O)C2(CC(O)C2)N1Cc1ccc(F)cc1", "note": "(single isomer, unassigned) [Diastereomer 867B, 8-(4-chloro-2-fluorophenyl)-5-(4-fluorobenzyl)-2-hydroxy-5,8-diazaspiro[3.5]nonane-6,9-dione]", "CDMF75 IC15": 1.7}
    ]}
  ]
}
